These results are taken from ChEMBL document CHEMBL1201862, “PubChem BioAssay data set” (2004).

Holding throughout (assay): NCI anticancer screen, dose series, 48 h
For test [1], the system named is NCI-H23.
Test [2] has as its system NCI/ADR-RES.
Test [3] concerns SK-OV-3.
For test [4], the system named is A498.
The test system of test [5] is Malme-3M.
Test [6] concerns MCF7.
Test [7] deals with TK-10.
Test [8] deals with NCI-H522.
The subject of test [9] is UACC-62.
Test [10] deals with HCT-15.
In test [11] the test system is NCI-H460.
The subject of test [12] is SK-MEL-5.
For test [13], the system named is ACHN.
Test [14] has as its system KM12.
The test system of test [15] is CCRF-CEM.
For test [16], the system named is HCT-116.
For test [17], the system named is COLO 205.
The test system of test [18] is SK-MEL-2.
The test system of test [19] is A549.
For test [20], the system named is PC-3.

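Method: 48-hour compound exposure of cells in 96-well plates, five concentrations, linear interpolation of endpoints. At the GI50, growth is halved.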 The source made the active and inactive calls. Cut-off read from the data, not from the text of the source: active = GI50 up to about 1.1 µM and inactive = higher.

With `COC(=O)c1c(C#C[Si](C)(C)C)c(C#C[Si](C)(C)C)c(C#C[Si](C)(C)C)c(C#C[Si](C)(C)C)c1C(=O)OC`, the GI50 in test [1], in [2], in test [3], in test [4], in test [5] and in test [6] was > 100 µM (inactive) in each case. Further, the GI50 in [7] was > 100 µM (inactive); in test [8], > 100 µM (inactive); in [9], > 100 µM (inactive); in [10] it was > 100 µM; in test [11], > 100 µM (inactive); in [12] it was > 100 µM (inactive). Further, the GI50 in test [13], in test [14], in test [15], in test [16], in test [17] and in test [18] was > 100 µM (inactive) throughout. Moreover, the GI50 in test [19] and in [20] was > 100 µM (inactive) throughout.
In the case of `C[N+]1(C)CC=C(N2CCOCC2)CC1`, the GI50 in test [1], in test [2], in test [3], in test [4], in [5] and in test [6] was > 10 µM (inactive) each time. Further, the GI50 in test [7] is > 10 µM (inactive); in [8] it was > 10 µM (inactive); in [9] it was > 10 µM (inactive); in test [10], > 10 µM; in [11] it was > 10 µM (inactive); in test [12] it was > 10 µM (inactive). The GI50 in test [13], in test [14], in test [15], in test [16], in [17] and in [18] was > 10 µM (inactive) each time. The GI50 in test [19] and in [20] was > 10 µM (inactive) each time.
For the compound `CCOC(=O)/C=C(/C(=O)OCC)n1cc(C)c(=O)n(Cc2cnnn2COCCOC(C)=O)c1=O`, the GI50 in test [1] was 15.8 µM (inactive); in test [2], 23.6 µM (inactive); in [3], > 100 µM (inactive); in test [4], 29.2 µM (inactive); in [5], 2.8 µM (inactive); in test [6], 10.5 µM (inactive). Also, the GI50 was 5.24 µM (inactive) in test [7]; 1.58 µM (inactive) in test [8]; 15.2 µM (inactive) in test [9]; 7.45 µM in test [10]; 24 µM (inactive) in test [11]; 20.7 µM (inactive) in [12]. Moreover, the GI50 was 6.05 µM (inactive) in test [13]; 21.3 µM (inactive) in test [14]; 2.17 µM (inactive) in [15]; 13.3 µM (inactive) in test [16]; 3.79 µM (inactive) in [17]; 28.4 µM (inactive) in test [18]. Moreover, the GI50 in test [19] was 50.4 µM (inactive); in [20], 17.2 µM (inactive).
In the case of `COc1ccc2oc(=O)c(-c3nc4ccccc4o3)cc2c1`, the GI50 is > 100 µM (inactive) in test [1]; 40.5 µM (inactive) in test [2]; > 100 µM (inactive) in [3]; 67.9 µM (inactive) in test [4]; > 100 µM (inactive) in test [5]; 32.7 µM (inactive) in [6]. Further, the GI50 is > 100 µM (inactive) in test [7]; 50.2 µM (inactive) in test [8]; 65 µM (inactive) in test [9]; 59 µM in test [10]; 74 µM (inactive) in test [11]; 39.1 µM (inactive) in [12]. Moreover, the GI50 in test [13] was > 100 µM (inactive); in [14], 27.4 µM (inactive); in test [15], > 100 µM (inactive); in test [16], > 100 µM (inactive); in [17], 81.7 µM (inactive); in test [18], > 100 µM (inactive). The GI50 in test [19] and in [20] was > 100 µM (inactive) each time.
In the case of `COC(=O)NCCc1n[nH]c2c1C(=O)C=C(N1CCOCC1)C2=O`, the GI50 in [1], in test [2], in [3], in [4], in test [5] and in [6] was > 100 µM (inactive) throughout. Besides, the GI50 was > 100 µM (inactive) in test [7]; > 100 µM (inactive) in test [8]; > 100 µM (inactive) in [9]; > 100 µM in test [10]; > 100 µM (inactive) in [11]; > 100 µM (inactive) in [12]. Further, the GI50 in test [13], in test [14], in [15], in test [16], in test [17] and in [18] was > 100 µM (inactive) throughout. The GI50 in test [19] and in test [20] was > 100 µM (inactive) in each case.
As for `Cc1[nH]c(=O)nc(N/N=C/c2ccc(Cl)cc2)c1C(=O)Nc1ccc(Cl)cc1`, the GI50 is 30.7 µM (inactive) in test [1]; 34.1 µM (inactive) in test [2]; 12.2 µM (inactive) in test [3]; 32.6 µM (inactive) in test [4]; 16.9 µM (inactive) in [5]; > 65.5 µM (inactive) in test [6]. Also, the GI50 is 27.6 µM (inactive) in test [7]; 27.3 µM (inactive) in test [8]; 47.3 µM (inactive) in test [9]; 38.5 µM in [10]; 10.4 µM (inactive) in test [11]; 18 µM (inactive) in test [12]. In addition, the GI50 in test [13] was 54.8 µM (inactive); in test [14], 32.9 µM (inactive); in test [15], > 66.7 µM (inactive); in [16] it was 7.59 µM (inactive); in test [17], 25.6 µM (inactive); in test [18], 76.6 µM (inactive). The GI50 in test [19] was 27 µM (inactive); in test [20], > 60.1 µM (inactive).
As for `CCC1C(=O)OCc2c1cc1n(c2=O)Cc2cc3ccccc3nc2-1` (stereo not given), the GI50 was 2.84 µM (inactive) in [1]; 8.43 µM (inactive) in test [2]; 43.6 µM (inactive) in test [3]; 10.7 µM (inactive) in test [4]; 60.3 µM (inactive) in test [5]; 1.59 µM (inactive) in [6]. The GI50 is > 100 µM (inactive) in test [7]; 7.73 µM (inactive) in test [8]; 3.72 µM (inactive) in test [9]; 43.4 µM in [10]; 0.802 µM (active) in [11]; 5.79 µM (inactive) in [12]. The GI50 in test [13] is 3.28 µM (inactive); in test [14] it was 50.9 µM (inactive); in [15], 0.377 µM (active); in test [16], 8.41 µM (inactive); in [17], 72.3 µM (inactive); in [18], > 100 µM (inactive). In addition, the GI50 is 5.09 µM (inactive) in [19] and 15.4 µM (inactive) in [20].
Regarding `Cc1ccc(C(=O)Nc2ccc(CP(=O)(O)O)cc2)cc1NC(=O)c1cccc(NC(=O)Nc2cccc(C(=O)Nc3cc(C(=O)Nc4ccc(CP(=O)(O)O)cc4)ccc3C)c2)c1`, the GI50 in test [1], in [2], in test [3], in [4], in [5] and in [6] was > 100 µM (inactive) each time. Further, the GI50 in test [7] is > 100 µM (inactive); in [8], > 100 µM (inactive); in [9], > 100 µM (inactive); in test [10], > 100 µM; in [11], > 100 µM (inactive); in test [12] it was > 100 µM (inactive). Further, the GI50 in test [13], in test [14], in test [15], in test [16], in [17] and in test [18] was > 100 µM (inactive) throughout. Besides, the GI50 in test [19] and in test [20] was > 100 µM (inactive) throughout.
Take `N#CC(Cc1ccccc1)N(CCC1=CCCCC1)C(c1ccccc1)c1ccccc1` (stereo not given): the GI50 is 60.1 µM (inactive) in test [1]; > 100 µM (inactive) in [2]; > 100 µM (inactive) in test [3]; > 100 µM (inactive) in test [4]; > 100 µM (inactive) in test [5]; 42.4 µM (inactive) in [6]. For the same compound, the GI50 in [7] is > 100 µM (inactive); in [8], 15.2 µM (inactive); in test [9] it was > 100 µM (inactive); in [10], 42.9 µM; in test [11] it was 33.5 µM (inactive); in test [12], 28 µM (inactive). The GI50 in test [13] is > 100 µM (inactive); in test [14], > 100 µM (inactive); in [15], 0.456 µM (active); in test [16], 15.8 µM (inactive); in test [17] it was 35.2 µM (inactive); in test [18] it was > 100 µM (inactive). The results for the GI50 in test [19] and in [20] were 70.3 µM (inactive) and 73.6 µM (inactive), respectively.
As to `O=[N+]([O-])c1cccc(/C=N/N=c2\ccc3ccccc3[nH]2)c1O`, the GI50 in test [1] was 1.82 µM (inactive); in [2], 0.151 µM (active); in test [3], 1.86 µM (inactive); in [4], 5.68 µM (inactive); in test [5], 1.88 µM (inactive); in [6] it was 1.94 µM (inactive). Also, the GI50 in test [7] was 2.51 µM (inactive); in test [8], 1.2 µM (inactive); in test [9], 1.43 µM (inactive); in test [10], 0.146 µM; in test [11], 0.448 µM (active); in [12] it was 0.984 µM (active). Also, the GI50 in test [13] is 0.478 µM (active); in [14] it was 1.87 µM (inactive); in test [15], 0.175 µM (active); in test [16] it was 0.526 µM (active); in test [17], 2.21 µM (inactive); in test [18], 4.4 µM (inactive). For the same compound, the GI50 in test [19] is 2.4 µM (inactive); in test [20] it was 2.7 µM (inactive).
